# Reference: ChEMBL document CHEMBL1201862, “PubChem BioAssay data set” (2004)
# Calls of active or inactive are those of the source.
# Columns and labels:
# [1] = biological target: Long-chain-fatty-acid--AMP ligase FadD28 (Mycobacterium tuberculosis, UniProt P9WQ59); assay: Fluorescence polarization aasay to screen for inhibitors that compete for the binding of FadD28 to a bisubstrate Measured in Biochemical System Using Plate Reader - 2147-01_Inhibitor_Dose_CherryPick_Activity.; assay type: functional, Mycobacterium tuberculosis H37Rv
# Chain of Long-chain-fatty-acid--AMP ligase FadD28 (P9WQ59 whole entry): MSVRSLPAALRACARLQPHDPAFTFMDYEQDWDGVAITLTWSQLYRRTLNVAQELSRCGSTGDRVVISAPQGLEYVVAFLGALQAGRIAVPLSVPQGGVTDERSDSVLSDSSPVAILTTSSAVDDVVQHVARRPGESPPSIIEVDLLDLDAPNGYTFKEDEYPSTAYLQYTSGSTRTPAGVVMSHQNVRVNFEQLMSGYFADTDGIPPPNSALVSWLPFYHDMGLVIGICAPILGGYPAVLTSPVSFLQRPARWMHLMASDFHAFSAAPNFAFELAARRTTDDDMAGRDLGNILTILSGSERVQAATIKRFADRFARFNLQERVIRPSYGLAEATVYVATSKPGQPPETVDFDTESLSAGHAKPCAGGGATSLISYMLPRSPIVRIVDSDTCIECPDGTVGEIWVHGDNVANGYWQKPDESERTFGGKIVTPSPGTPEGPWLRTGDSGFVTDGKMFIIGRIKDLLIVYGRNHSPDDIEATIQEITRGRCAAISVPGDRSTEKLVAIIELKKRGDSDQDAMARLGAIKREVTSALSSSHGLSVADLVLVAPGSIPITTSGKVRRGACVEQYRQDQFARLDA
# [2] = biological target: 26S proteasome non-ATPase regulatory subunit 14 (Homo sapiens, UniProt O00487); assay: inhibition of proteasome subunit RPN11 – biochemical, fluorescence polarization, uHTS hits, confirmation (AID 602368); assay type: functional
# Chain of 26S proteasome non-ATPase regulatory subunit 14 (O00487 whole entry): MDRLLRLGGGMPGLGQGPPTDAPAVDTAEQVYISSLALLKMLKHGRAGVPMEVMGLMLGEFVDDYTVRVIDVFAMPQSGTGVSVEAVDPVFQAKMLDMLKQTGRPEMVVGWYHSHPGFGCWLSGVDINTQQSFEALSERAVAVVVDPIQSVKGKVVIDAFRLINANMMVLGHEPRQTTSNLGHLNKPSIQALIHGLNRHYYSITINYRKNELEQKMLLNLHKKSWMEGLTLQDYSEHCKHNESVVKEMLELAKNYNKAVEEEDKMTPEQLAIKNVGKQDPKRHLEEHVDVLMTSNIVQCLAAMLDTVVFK
# [3] = biological target: 72 kDa type IV collagenase (Homo sapiens, UniProt P08253); assay: Dose Response validation of uHTS RPN11 inhibitor hits using a MMP-2 Fluorescence assay.; assay type: functional
# Chain of 72 kDa type IV collagenase (P08253 whole entry): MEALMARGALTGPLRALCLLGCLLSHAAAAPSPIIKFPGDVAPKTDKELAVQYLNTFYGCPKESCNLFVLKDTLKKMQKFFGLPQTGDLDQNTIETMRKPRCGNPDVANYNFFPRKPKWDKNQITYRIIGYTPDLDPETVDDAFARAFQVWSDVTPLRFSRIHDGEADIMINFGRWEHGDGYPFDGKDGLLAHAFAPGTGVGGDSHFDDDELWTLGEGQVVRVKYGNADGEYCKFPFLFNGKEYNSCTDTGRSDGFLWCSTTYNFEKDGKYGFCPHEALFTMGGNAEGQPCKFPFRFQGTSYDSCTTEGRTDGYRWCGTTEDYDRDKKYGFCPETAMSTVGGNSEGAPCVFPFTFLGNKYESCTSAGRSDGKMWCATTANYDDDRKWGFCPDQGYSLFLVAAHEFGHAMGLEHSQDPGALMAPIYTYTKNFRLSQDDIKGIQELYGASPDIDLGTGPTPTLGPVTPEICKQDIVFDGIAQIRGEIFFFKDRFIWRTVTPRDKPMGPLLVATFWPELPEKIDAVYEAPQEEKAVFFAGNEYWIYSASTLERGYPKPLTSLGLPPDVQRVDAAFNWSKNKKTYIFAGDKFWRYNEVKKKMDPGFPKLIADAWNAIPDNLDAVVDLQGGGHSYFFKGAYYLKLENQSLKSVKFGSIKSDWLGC
# [4] = biological target: Prothrombin (Bos taurus, UniProt P00735); assay: thrombin protease inhibitors – biochemical, fluorescence polarization, uHTS hits, dose response (AID 602369); assay type: functional
# [5] = biological target: Melanocortin receptor 4 (Homo sapiens, UniProt P32245); assay: inhibitors of MC4R cAMP signaling – cell-based, TR-FRET, biased antagonists, dose response (AID 602298); assay type: functional;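 note: antagonist potency against agonist-stimulated cAMP production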
# Chain of Melanocortin receptor 4 (P32245 whole entry): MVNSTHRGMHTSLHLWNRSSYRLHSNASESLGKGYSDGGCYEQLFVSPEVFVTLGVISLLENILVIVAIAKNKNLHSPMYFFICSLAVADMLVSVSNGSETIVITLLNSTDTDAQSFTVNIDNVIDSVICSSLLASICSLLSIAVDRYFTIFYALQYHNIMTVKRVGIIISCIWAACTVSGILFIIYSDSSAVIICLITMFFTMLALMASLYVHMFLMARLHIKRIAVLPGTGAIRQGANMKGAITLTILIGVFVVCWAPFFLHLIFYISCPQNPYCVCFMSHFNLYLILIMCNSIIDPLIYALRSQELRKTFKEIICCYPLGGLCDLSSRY
# [6] = reduction of Shn3 3'UTR-driven luciferase in osteoblasts – cell-based, Clone20 osteoblasts, firefly luciferase, cherry-picked, dose response (AID 624132); assay type: functional;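 note: firefly luciferase luminescence from reporter carrying the Shn3 3'UTR in osteoblasts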
# [7] = loss of viability in HepG2 cells – cell-based, CellTiter-Glo, cherry-picked, cytotoxicity control for Shn3 inhibitor project, dose response (AID 624134); assay type: functional
# [8] = non-specific 3'UTR reporter inhibition in Clone20-Shn3RL – cell-based, Renilla luciferase, cherry-picked, counter-screen for Shn3 inhibitor project, dose response (AID 624133); assay type: functional
# [9] = cAMP pathway inhibition in counterscreen cell line – TR-FRET cAMP detection, counter-screen for MC4R biased antagonist project, dose response (AID 602305); assay type: functional, cell-based;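 note: U2OS cells stimulated with forskolin near its EC80 as the cAMP inducer; potency is for inhibition of forskolin-stimulated cAMP signaling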
# [10] = biological target: Protein Wnt-3a (Mus musculus, UniProt P27467); assay: antagonism of Wnt3a pathway luciferase reporter – Wnt-LIGHT cells, luminescence, selectivity assay for Gli-SUFU antagonist project, dose response (AID 651570); assay type: functional; details: read-out: IC50_Mean;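 note: Wnt-LIGHT reporter cells stimulated with conditioned medium from Wnt3a-producing cells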
# Chain of Protein Wnt-3a (P27467 whole entry): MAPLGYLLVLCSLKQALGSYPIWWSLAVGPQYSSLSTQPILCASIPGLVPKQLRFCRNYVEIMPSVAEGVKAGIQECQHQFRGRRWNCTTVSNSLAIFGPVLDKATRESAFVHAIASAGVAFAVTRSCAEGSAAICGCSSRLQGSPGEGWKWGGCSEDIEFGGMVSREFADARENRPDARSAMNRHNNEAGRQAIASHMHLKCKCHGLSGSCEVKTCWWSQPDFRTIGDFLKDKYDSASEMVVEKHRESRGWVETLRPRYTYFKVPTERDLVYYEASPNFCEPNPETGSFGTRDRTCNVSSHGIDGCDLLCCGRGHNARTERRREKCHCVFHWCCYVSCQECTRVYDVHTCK
# [11] = biological target: T1, Rac GTPase-activating protein 1 (Homo sapiens, UniProt Q9H0H5); assay: blockers of MgcRacGAP-driven Rac1 GTP hydrolysis – biochemical, ADP Hunter fluorescence, primary and confirmatory, confirmation (AID 624330); assay type: functional
# T1 sequence (Q9H0H5 whole entry): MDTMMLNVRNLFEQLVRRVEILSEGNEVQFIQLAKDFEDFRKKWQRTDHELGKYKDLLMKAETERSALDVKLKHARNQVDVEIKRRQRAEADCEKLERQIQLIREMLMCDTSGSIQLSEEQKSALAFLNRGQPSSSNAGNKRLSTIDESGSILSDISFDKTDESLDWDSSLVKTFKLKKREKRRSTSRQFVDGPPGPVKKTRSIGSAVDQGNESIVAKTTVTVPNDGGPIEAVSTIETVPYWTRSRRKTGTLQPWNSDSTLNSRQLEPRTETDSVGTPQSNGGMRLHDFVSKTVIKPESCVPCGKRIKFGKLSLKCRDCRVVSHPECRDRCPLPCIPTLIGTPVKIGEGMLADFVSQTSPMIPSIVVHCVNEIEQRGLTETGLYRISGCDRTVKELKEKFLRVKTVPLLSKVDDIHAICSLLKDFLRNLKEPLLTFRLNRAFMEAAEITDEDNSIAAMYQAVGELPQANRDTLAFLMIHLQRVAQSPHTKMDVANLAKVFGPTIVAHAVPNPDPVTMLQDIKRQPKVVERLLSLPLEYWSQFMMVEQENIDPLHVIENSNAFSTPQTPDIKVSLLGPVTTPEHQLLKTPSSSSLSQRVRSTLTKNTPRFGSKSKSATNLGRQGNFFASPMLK
# [12] = biological target: Apoptotic protease-activating factor 1 (Homo sapiens, UniProt O14727); assay type: functional
# Chain of Apoptotic protease-activating factor 1 (O14727 whole entry): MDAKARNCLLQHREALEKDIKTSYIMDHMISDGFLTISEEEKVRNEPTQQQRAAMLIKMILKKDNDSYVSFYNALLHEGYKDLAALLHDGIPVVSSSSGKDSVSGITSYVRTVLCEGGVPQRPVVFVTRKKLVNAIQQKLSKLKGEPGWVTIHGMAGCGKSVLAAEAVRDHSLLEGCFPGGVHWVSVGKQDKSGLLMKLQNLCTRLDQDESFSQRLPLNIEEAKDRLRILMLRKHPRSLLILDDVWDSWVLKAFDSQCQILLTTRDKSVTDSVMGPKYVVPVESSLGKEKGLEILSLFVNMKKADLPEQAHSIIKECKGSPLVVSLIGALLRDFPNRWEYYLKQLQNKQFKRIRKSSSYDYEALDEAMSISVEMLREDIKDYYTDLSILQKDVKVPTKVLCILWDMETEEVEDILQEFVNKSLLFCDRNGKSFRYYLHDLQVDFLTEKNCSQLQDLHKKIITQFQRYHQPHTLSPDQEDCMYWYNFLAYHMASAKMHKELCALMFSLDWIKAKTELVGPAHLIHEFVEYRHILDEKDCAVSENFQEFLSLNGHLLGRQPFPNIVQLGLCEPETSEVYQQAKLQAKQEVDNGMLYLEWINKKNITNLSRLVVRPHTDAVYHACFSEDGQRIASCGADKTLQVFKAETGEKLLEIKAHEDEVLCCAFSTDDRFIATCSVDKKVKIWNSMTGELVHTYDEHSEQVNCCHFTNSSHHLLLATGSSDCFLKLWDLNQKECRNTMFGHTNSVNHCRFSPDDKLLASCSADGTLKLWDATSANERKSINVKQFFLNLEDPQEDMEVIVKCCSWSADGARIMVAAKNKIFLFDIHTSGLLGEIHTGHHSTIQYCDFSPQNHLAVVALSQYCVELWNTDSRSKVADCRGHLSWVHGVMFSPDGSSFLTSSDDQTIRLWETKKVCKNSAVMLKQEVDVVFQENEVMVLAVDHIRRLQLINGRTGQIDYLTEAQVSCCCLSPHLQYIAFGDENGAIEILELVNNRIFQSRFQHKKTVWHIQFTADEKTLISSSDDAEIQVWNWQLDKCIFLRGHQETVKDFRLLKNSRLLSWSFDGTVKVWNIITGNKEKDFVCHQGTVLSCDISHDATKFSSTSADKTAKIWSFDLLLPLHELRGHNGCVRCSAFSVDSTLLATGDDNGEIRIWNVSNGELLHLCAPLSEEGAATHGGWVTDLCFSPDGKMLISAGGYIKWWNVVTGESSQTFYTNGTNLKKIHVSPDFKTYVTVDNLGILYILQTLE
smiles,measurement,setting,value
CCc1cccc2c(C(=O)COC(=O)c3cnc(C)cn3)c[nH]c12,AC50,[1],20 µM (active)
O=C(Cn1cc(C(=O)COc2ccccc2)c2ccccc21)NCc1ccco1,IC50,[2],47.6 µM (active)
same,IC50,[3],> 100 µM (inactive)
same,IC50,[4],41.3 µM (active)
CCOC(=O)c1c(NC(=O)COc2cccc3c2CCN(C)C3=O)sc2c1CCC2,IC50,[5],> 64.6 µM (inactive)
same,AC50,[6],5.44 µM (active)
same,AC50,[7],41.7 µM (active)
same,AC50,[8],22.8 µM (active)
same,IC50,[9],> 64.6 µM (inactive)
same,IC50,[10],6.12 µM (active)
CC1(C)OC(=O)C(=Cc2ccc(-c3ccc(S(N)(=O)=O)cc3)o2)C(=O)O1,IC50,[5],> 64.6 µM (inactive)
same,IC50,[9],> 64.6 µM (inactive)
same,IC50,[11],41.8 µM (active)
COc1ccc(C(=O)Nc2ccc3c(c2)C(=O)c2ccccc2C3=O)cc1OC,IC50,[12],> 100 µM (inactive)
